Test [1] concerns ai5γ group II intron (D135 ribozyme). The test is described as follows: Fluorescent D135 ribozyme cleavage assay (IC50). It is filed as biochemical, Saccharomyces cerevisiae. Conditions: for IC50: D135 ribozyme cleavage of substrate 17/2 DL, 100 mM MgCl2, 500 mM KCl, 37° C., 10 minutes; for In vitro inhibitory activity, SAR statement (in words): relative to parent scaffold. The method, boiled down: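 D135 ribozyme (20 nM) with double-labeled substrate 17/2 DL (20 nM) in 50 mM MOPS pH 7.0, 100 mM MgCl2, 0.5 M KCl; 19 inhibitor concentrations, 5 nM–1 mM, 10 min at 37 °C, EDTA quench, fluorescence read. Triplicates fit to 4-parameter logistic for IC50; mean±s.e.m.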

Test [2] has as its target ai5γ group II intron. The test is described as follows: Radioanalytic self-splicing assay of SE RNA (Ki). It is filed as biochemical, Saccharomyces cerevisiae. Conditions: 8 mM MgCl2, 100 mM KCl, pH 7.5, 30° C. The method, boiled down: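 Internally labeled SE RNA (2 nM) self-spliced with varying inhibitor in 50 mM MOPS pH 7.5, 8 mM MgCl2, 100 mM KCl at 30° C; time points resolved on 5% denaturing PAGE. kobs from single-exponential fits, Ki from non-competitive model kobs=kmax/(1+[I]/Ki); mean±s.e.m. of 2–4 runs.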

For test [3], the system named is S. cerevisiae. The test is described as follows: Yeast respiration assay in S. cerevisiae (MIC in YPD / YPGE). The note with it: Saccharomyces cerevisiae, 30° C. It is filed as cell-based, Saccharomyces cerevisiae. How it is done: Yeast respiration assays were conducted either in liquid YPD media (BD Bacto Yeast Extract, BD Bacto Peptone, 2% glucose) or in YPGE media (BD Bacto Yeast Extract, BD Bacto Peptone, 3% glycerol, 3% ethanol), essentially as described for the antifungal MIC assays (see below). To initiate these experiments, 100 μl of a fresh stock solution was prepared for each compound (3.2 mg/ml for Amphotericin B and 12.8 mg/ml for each test compounds) in DMSO. This concentrated stock solution was placed in the first well of 12-well row on a 96-well plate. The subsequent nine wells in this row contained 50 μl of DMSO for serial dilution. From the first well, 50 μl of the compound stock was withdrawn, transferred to the second well and mixed. This process was repeated from the second and subsequent wells, resulting in a 1:2 serial dilution of the stock into DMSO. Wells 11 and 12 contained DMSO only, to be used as no compound control and sterility control, with no inoculum added, respectively. After preparing this plate, 2.5 μl from each of the 12 wells was transferred to the wells of a separate 96-well plate, each of which contained 122.5 μl of YPD or YPGE medium, resulting in a set of serial dilutions of compound into growth media in a volume of 125 μl. Then 50 μl from each of these dilutions were transferred onto a third 96-well plate (the assay plate) and mixed with an equal volume (50 μl) of freshly prepared yeast inoculum in YPD or YPGE medium set to provide 0.5×10^3 to 2.5×10^3 colony forming units per 1 mL (wells 1-11), or YPD/YPGE alone (sterility control, well 12). The final compound concentration range of the assay was 0.25-128 μg/ml for test compounds and 0.0625-32 μg/ml for Amphotericin B. The final concentration of DMSO was 1%. Plates were incubated at 30° C. and visually analyzed for turbidity after 24 and 48 hours of incubation. The lowest compound concentration at which no growth was apparent is reported as the MIC (Table 1). All experiments were performed in triplicate.

The mark [4] stands for this setting: YPD medium, read-out: MIC in YPD (glucose).
Setting [5] is: YPGE medium, read-out: MIC in YPGE (glycerol).

In brackets after ≈: the same amount, converted by molar mass. Read-outs that look alike come from different tables or passages of the source.

In the case of `CC(=O)c1ccc(-c2ccc3oc(C(=O)c4cc(O)c(O)c(O)c4)cc3c2)cc1` [APY-101, 1-(4-{2-[(3,4,5-Trihydroxyphenyl)carbonyl]-1-benzofuran-5-yl}phenyl)ethan-1-one], in test [1], the IC50 (as a rule, the concentration needed to halve the response being measured) was determined as 1.5 ± 0.1 µM. For the same molecule, the inhibition constant (Ki) (usually the equilibrium dissociation constant of an inhibitor or competing ligand from its target) in test [2] is 2.1 ± 0.2 µM. Moreover, the MIC – broadly, the smallest concentration in the dilution series that meets the test's criterion for growth inhibition – was greater than 128 mg/L in test [3] (setting [4]) and 32 mg/L (≈ 82.4 µM) in test [3] (setting [5]).
`CCCCNS(=O)(=O)c1ccc(-c2ccc(-c3nc(-c4cc(O)c(O)c(O)c4)cs3)cc2)cc1` [APY-093, N-Butyl-4-{4-[4-(3,4,5-trihydroxyphenyl)-1,3-thiazol-2-yl]phenyl}benzene-1-sulfonamide]: the concentration for half-maximal inhibition (IC50) in test [1] is 86 ± 3 µM. Besides, the “In vitro inhibitory activity, SAR statement (in words)” value in test [1] is listed as “substantial loss of activity”. The molecule further registered an inhibition constant (Ki) in test [2] of 53 ± 5 µM. The MIC in test [3] (setting [4]) and in test [3] (setting [5]) was greater than 128 mg/L each time.
In the case of `O=C1/C(=C/c2cc(O)cc(O)c2)Oc2cc(O)cc(O)c21` [APY-014, (Z)-2-(3,5-Dihydroxybenzylidene)-4,6-dihydroxybenzofuran-3(2H)-one], in test [1], the half-inhibitory concentration (IC50) was 266 ± 37 µM and the “In vitro inhibitory activity, SAR statement (in words)” value is on record as “nearly complete loss of activity”. In test [2], affinity was put at a Ki of 251 ± 31 µM. Further, the MIC in test [3] (setting [4]) was greater than 128 mg/L. Also, the minimal inhibitory concentration (MIC) in test [3] (setting [5]) was greater than 128 mg/L.
Consider `Br.CCN(CC)Cc1ccc(-c2ccc3oc(C(=O)c4cc(O)c(O)c(O)c4)cc3c2)cc1` [APY-090, 5-[(5-{4-[(Diethylamino)methyl]phenyl}-1-benzofuran-2-yl)carbonyl]benzene-1,2,3-triol hydrobromide], for which the IC50 in test [1] was 2.1 ± 0.4 µM. In test [2], the Ki was 0.37 ± 0.04 µM. Moreover, the MIC in test [3] (setting [4]) is greater than 128 mg/L; in test [3] (setting [5]), 64 mg/L.
Consider `Cc1ccncc1-c1ccc2oc(C(=O)c3cc(O)c(O)c(O)c3)cc2c1` [APY-081, 5-{[5-(4-Methylpyridin-3-yl)-1-benzofuran-2-yl]carbonyl}benzene-1,2,3-triol], for which the 50% inhibitory concentration (IC50) in test [1] came out at 6.8 ± 1.1 µM. In addition, in test [2], the Ki came out at 5.3 ± 0.2 µM. In addition, the minimal inhibitory concentration (MIC) in test [3] (setting [4]) is greater than 128 mg/L; in test [3] (setting [5]), 32 mg/L (≈ 88.6 µM).
On to `O=C(c1cc(O)c(O)c(O)c1)c1cc2cc(-c3ccc(CO)cc3)ccc2o1` [APY-084, 5-({5-[4-(Hydroxymethyl)phenyl]-1-benzofuran-2-yl}carbonyl)benzene-1,2,3-triol], for which the 50% inhibitory concentration (IC50) in test [1] was determined as 0.9 ± 0.1 µM. The molecule further displayed an inhibitory constant (Ki) in test [2] of 1.3 ± 0.4 µM. In addition, the minimum inhibitory concentration (MIC) in test [3] (setting [4]) is greater than 128 mg/L; in test [3] (setting [5]), 16 to 32 mg/L (≈ 42.5 to 85 µM).

Values taken from patent US12421257B2, “Compositions and methods for inhibiting group II intron RNA” (YALE UNIVERSITY, priority 2018, dated 2025).
